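Protocol summary: plate cells (96-well), add compound at 5 concentrations, incubate 48 h, interpolate endpoints linearly. GI50: concentration for 50% inhibition of growth.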 Calls of active or inactive are those of the source. Cut-off read from the data, not from the text of the source: active = GI50 up to about 1.1 µM and inactive = higher.
Legend:
Assay in all cases: DTP human tumour cell line panel, 48 h
UACC-257 = system: UACC-257
Malme-3M = system: Malme-3M
HOP-92 = system: HOP-92
CCRF-CEM = system: CCRF-CEM
SN12C = system: SN12C
RXF 393 = system: RXF 393
SNB-75 = system: SNB-75
RPMI-8226 = system: RPMI-8226
UACC-62 = system: UACC-62
NCI-H23 = system: NCI-H23
SK-MEL-2 = system: SK-MEL-2
CAKI-1 = system: CAKI-1
HCT-116 = system: HCT-116
SK-MEL-5 = system: SK-MEL-5
786-0 = system: 786-0
RXF 631 = system: RXF 631
OVCAR-5 = system: OVCAR-5
SF-295 = system: SF-295
HL-60 = system: HL-60
M14 = system: M14
SF-539 = system: SF-539
SK-MEL-28 = system: SK-MEL-28
U-251 = system: U-251
SW-620 = system: SW-620
A549 = system: A549
OVCAR-3 = system: OVCAR-3
UO-31 = system: UO-31
HT-29 = system: HT-29
TK-10 = system: TK-10
LXFL 529 = system: LXFL 529
KM12 = system: KM12
XF498 = system: XF498
HCT-15 = system: HCT-15
NCI-H460 = system: NCI-H460
DLD-1 = system: DLD-1
NCI-H522 = system: NCI-H522
SNB-19 = system: SNB-19
NCI-H226 = system: NCI-H226
KM-20L2 = system: KM-20L2
LOX IMVI = system: LOX IMVI
DMS-273 = system: DMS-273
A498 = system: A498
DMS-114 = system: DMS-114
ACHN = system: ACHN
HOP-62 = system: HOP-62
IGROV-1 = system: IGROV-1
M19-MEL = system: M19-MEL
EKVX = system: EKVX
COLO 205 = system: COLO 205
SK-OV-3 = system: SK-OV-3
K562 = system: K562
OVCAR-8 = system: OVCAR-8
OVCAR-4 = system: OVCAR-4
SNB-78 = system: SNB-78
SF-268 = system: SF-268
SR = system: SR
MOLT-4 = system: MOLT-4
HCC 2998 = system: HCC 2998

SMILES: COc1ccc2nc(NC(=O)C(=O)C(C#N)c3ccc(Cl)c(Cl)c3)sc2c1 (stereo unspecified)
- GI50 (UACC-257): > 100 µM (inactive)
- GI50 (Malme-3M): > 100 µM (inactive)
- GI50 (HOP-92): 33.9 µM (inactive)
- GI50 (CCRF-CEM): > 100 µM (inactive)
- GI50 (SN12C): > 100 µM (inactive)
- GI50 (RXF 393): 52.2 µM (inactive)
- GI50 (SNB-75): 45.3 µM (inactive)
- GI50 (RPMI-8226): > 100 µM (inactive)
- GI50 (UACC-62): > 100 µM (inactive)
- GI50 (NCI-H23): 75.9 µM (inactive)
- GI50 (SK-MEL-2): > 100 µM (inactive)
- GI50 (CAKI-1): > 100 µM (inactive)
- GI50 (HCT-116): 62.4 µM (inactive)
- GI50 (SK-MEL-5): > 100 µM (inactive)
- GI50 (786-0): > 100 µM (inactive)
- GI50 (RXF 631): > 100 µM (inactive)
- GI50 (OVCAR-5): > 100 µM (inactive)
- GI50 (SF-295): > 100 µM (inactive)
- GI50 (HL-60): > 100 µM (inactive)
- GI50 (M14): > 100 µM (inactive)
- GI50 (SF-539): 63.4 µM (inactive)
- GI50 (SK-MEL-28): > 100 µM (inactive)
- GI50 (U-251): > 100 µM (inactive)
- GI50 (SW-620): > 100 µM (inactive)
- GI50 (A549): > 100 µM (inactive)
- GI50 (OVCAR-3): > 100 µM (inactive)
- GI50 (UO-31): > 100 µM (inactive)
- GI50 (HT-29): > 100 µM (inactive)
- GI50 (TK-10): > 100 µM (inactive)
- GI50 (LXFL 529): > 100 µM (inactive)
- GI50 (KM12): > 100 µM (inactive)
- GI50 (XF498): > 100 µM (inactive)
- GI50 (HCT-15): > 100 µM
- GI50 (NCI-H460): 84.7 µM (inactive)
- GI50 (DLD-1): > 100 µM (inactive)
- GI50 (NCI-H522): 36.9 µM (inactive)
- GI50 (SNB-19): > 100 µM (inactive)
- GI50 (NCI-H226): > 100 µM (inactive)
- GI50 (KM-20L2): > 100 µM (inactive)
- GI50 (LOX IMVI): > 100 µM (inactive)
- GI50 (DMS-273): > 100 µM (inactive)
- GI50 (A498): > 100 µM (inactive)
- GI50 (DMS-114): 78.9 µM (inactive)
- GI50 (ACHN): > 100 µM (inactive)
- GI50 (HOP-62): > 100 µM (inactive)
- GI50 (IGROV-1): > 100 µM (inactive)
- GI50 (M19-MEL): > 100 µM (inactive)
- GI50 (EKVX): 88.9 µM (inactive)
- GI50 (COLO 205): > 100 µM (inactive)
- GI50 (SK-OV-3): > 100 µM (inactive)
- GI50 (K562): > 100 µM (inactive)
- GI50 (OVCAR-8): > 100 µM (inactive)
- GI50 (OVCAR-4): > 100 µM (inactive)
- GI50 (SNB-78): > 100 µM (inactive)
- GI50 (SF-268): 79.8 µM (inactive)

SMILES: Cc1ccc(C2(C)NC(=S)N(NC(N)=S)C2=S)cc1 (stereo unspecified)
- GI50 (UACC-257): > 100 µM (inactive)
- GI50 (Malme-3M): > 100 µM (inactive)
- GI50 (CCRF-CEM): 24.6 µM (inactive)
- GI50 (SN12C): > 100 µM (inactive)
- GI50 (RXF 393): 80.2 µM (inactive)
- GI50 (SNB-75): 25.3 µM (inactive)
- GI50 (RPMI-8226): 32.7 µM (inactive)
- GI50 (UACC-62): 43.2 µM (inactive)
- GI50 (NCI-H23): > 100 µM (inactive)
- GI50 (SK-MEL-2): > 100 µM (inactive)
- GI50 (HCT-116): > 100 µM (inactive)
- GI50 (SK-MEL-5): > 100 µM (inactive)
- GI50 (786-0): 81.1 µM (inactive)
- GI50 (RXF 631): > 100 µM (inactive)
- GI50 (SF-295): > 100 µM (inactive)
- GI50 (HL-60): > 100 µM (inactive)
- GI50 (M14): > 100 µM (inactive)
- GI50 (SF-539): > 100 µM (inactive)
- GI50 (SK-MEL-28): > 100 µM (inactive)
- GI50 (U-251): > 100 µM (inactive)
- GI50 (SW-620): 87.7 µM (inactive)
- GI50 (A549): > 100 µM (inactive)
- GI50 (OVCAR-3): > 100 µM (inactive)
- GI50 (UO-31): > 100 µM (inactive)
- GI50 (TK-10): > 100 µM (inactive)
- GI50 (LXFL 529): 71.8 µM (inactive)
- GI50 (XF498): > 100 µM (inactive)
- GI50 (SR): 51.6 µM (inactive)
- GI50 (HCT-15): > 100 µM
- GI50 (NCI-H460): > 100 µM (inactive)
- GI50 (DLD-1): 71.1 µM (inactive)
- GI50 (MOLT-4): 46.3 µM (inactive)
- GI50 (SNB-19): > 100 µM (inactive)
- GI50 (NCI-H226): > 100 µM (inactive)
- GI50 (KM-20L2): > 100 µM (inactive)
- GI50 (LOX IMVI): 47 µM (inactive)
- GI50 (DMS-273): > 100 µM (inactive)
- GI50 (A498): > 100 µM (inactive)
- GI50 (DMS-114): 73.6 µM (inactive)
- GI50 (ACHN): > 100 µM (inactive)
- GI50 (HOP-62): > 100 µM (inactive)
- GI50 (HCC 2998): > 100 µM (inactive)
- GI50 (IGROV-1): > 100 µM (inactive)
- GI50 (M19-MEL): > 100 µM (inactive)
- GI50 (EKVX): > 100 µM (inactive)
- GI50 (COLO 205): > 100 µM (inactive)
- GI50 (K562): 39.6 µM (inactive)
- GI50 (OVCAR-8): > 100 µM (inactive)
- GI50 (OVCAR-4): > 100 µM (inactive)
- GI50 (SF-268): > 100 µM (inactive)

SMILES: C/C(CC(=O)Nc1ccc([N+](=O)[O-])cc1)=N/N=C(N)N
- GI50 (UACC-257): > 100 µM (inactive)
- GI50 (Malme-3M): > 100 µM (inactive)
- GI50 (HOP-92): > 100 µM (inactive)
- GI50 (CCRF-CEM): > 100 µM (inactive)
- GI50 (RXF 393): > 100 µM (inactive)
- GI50 (SNB-75): > 100 µM (inactive)
- GI50 (RPMI-8226): > 10 µM (inactive)
- GI50 (UACC-62): > 100 µM (inactive)
- GI50 (NCI-H23): > 100 µM (inactive)
- GI50 (SK-MEL-2): > 100 µM (inactive)
- GI50 (HCT-116): > 100 µM (inactive)
- GI50 (SK-MEL-5): > 100 µM (inactive)
- GI50 (786-0): > 100 µM (inactive)
- GI50 (RXF 631): > 100 µM (inactive)
- GI50 (OVCAR-5): > 100 µM (inactive)
- GI50 (SF-295): > 100 µM (inactive)
- GI50 (HL-60): > 100 µM (inactive)
- GI50 (M14): > 100 µM (inactive)
- GI50 (SF-539): > 100 µM (inactive)
- GI50 (SK-MEL-28): > 100 µM (inactive)
- GI50 (U-251): > 100 µM (inactive)
- GI50 (SW-620): > 100 µM (inactive)
- GI50 (A549): > 100 µM (inactive)
- GI50 (OVCAR-3): > 100 µM (inactive)
- GI50 (UO-31): > 100 µM (inactive)
- GI50 (HT-29): > 100 µM (inactive)
- GI50 (TK-10): > 100 µM (inactive)
- GI50 (LXFL 529): 82 µM (inactive)
- GI50 (KM12): > 100 µM (inactive)
- GI50 (XF498): > 100 µM (inactive)
- GI50 (NCI-H460): > 100 µM (inactive)
- GI50 (DLD-1): > 100 µM (inactive)
- GI50 (MOLT-4): > 100 µM (inactive)
- GI50 (NCI-H522): > 100 µM (inactive)
- GI50 (NCI-H226): > 100 µM (inactive)
- GI50 (KM-20L2): > 100 µM (inactive)
- GI50 (LOX IMVI): > 100 µM (inactive)
- GI50 (DMS-273): > 100 µM (inactive)
- GI50 (DMS-114): > 100 µM (inactive)
- GI50 (ACHN): > 100 µM (inactive)
- GI50 (HOP-62): > 100 µM (inactive)
- GI50 (HCC 2998): > 100 µM (inactive)
- GI50 (IGROV-1): > 100 µM (inactive)
- GI50 (M19-MEL): > 100 µM (inactive)
- GI50 (EKVX): > 100 µM (inactive)
- GI50 (COLO 205): > 100 µM (inactive)
- GI50 (SK-OV-3): > 100 µM (inactive)
- GI50 (K562): > 100 µM (inactive)
- GI50 (OVCAR-8): > 100 µM (inactive)
- GI50 (SNB-78): > 100 µM (inactive)
- GI50 (SF-268): > 100 µM (inactive)
